Entries after “also recorded” stand apart in the source; their conditions may differ.
Experiments:
[1] = target: T1, recombinant Rv3378c protein (Mycobacterium tuberculosis, UniProt P9WJ61); experiment: Rv3378c enzymatic assays (tuberculosinyl transferase, HPLC-MS detection of 1-TbAd); type: biochemical, M. tuberculosis; settings: pH 7.4
T1 construct: hexahistidine (His6) tag from pET-28b, thrombin-cleavable (N, cleaved yes); made in house; host or cells: E. coli BL21-CodonPlus, co-expressed with GroES/GroEL chaperones
T1 sequence (P9WJ61 1-296): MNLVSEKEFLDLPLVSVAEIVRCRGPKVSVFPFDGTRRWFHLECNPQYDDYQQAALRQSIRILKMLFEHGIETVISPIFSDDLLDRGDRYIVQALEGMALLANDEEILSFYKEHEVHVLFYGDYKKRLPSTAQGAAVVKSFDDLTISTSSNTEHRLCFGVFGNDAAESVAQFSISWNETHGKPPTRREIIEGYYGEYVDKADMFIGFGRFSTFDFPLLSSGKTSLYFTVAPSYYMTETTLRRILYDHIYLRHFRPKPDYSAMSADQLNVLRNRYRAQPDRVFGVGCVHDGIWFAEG

phagosomal acidification = settings: synthetic tuberculosinols coupled to beads; reference (21); cited from earlier work

Row | Compound | product formation by Rv3378c from diterpene pyrophosphate substrate and adenosine [1] | effect on phagosomal acidification (phagosomal acidification)
1 | CC(C)=CCC/C(C)=C/CC/C(C)=C/CC/C(C)=C/COP(=O)(O)OP(=O)(O)O [GGPP, geranylgeranyl pyrophosphate] | little or no product; also recorded: does not act on GGPP | –
2 | C/C(=C\CO)CC[C@@]1(C)[C@@H]2CCCC(C)(C)C2=CC[C@@H]1C [tuberculosinols, tuberculosinol] | – | block phagosomal acidification
3 | tuberculosinyl pyrophosphate [TbPP] | catalyzed the condensation of adenosine and TbPP to generate 1-TbAd | –

— patent publication US10197560B2 (priority 2013, dated 2019)
